{"source": "paper PMC4235214", "about": "(mBio, 2014)", "key": {"EHEC": {"system": "EHEC", "type": "cell-based, enterohemorrhagic Escherichia coli (EHEC) O157:H7"}, "S. Typhimurium": {"system": "S. Typhimurium", "type": "cell-based, Salmonella enterica serovar Typhimurium", "settings": "J774 macrophages, 5 nM"}, "[1]": {"system": "S. Typhimurium strain SL1344", "set-up": "species or system mice (BALB/c)", "settings": "mouse, in vivo"}, "EAEC O104:H4 [2]": {"system": "EAEC O104:H4", "type": "cell-based, enteroaggregative E. coli (EAEC)", "settings": "EAEC O104:H4, 5 nM, 24 h"}, "UPEC": {"system": "UPEC", "type": "cell-based, uropathogenic E. coli (UPEC)", "settings": "for reduction of biofilm formation: 24 h"}, "[3]": {"system": "Pseudomonas and Klebsiella isolates", "type": "cell-based"}, "EAEC O104:H4 [4]": {"system": "EAEC O104:H4", "type": "cell-based, enteroaggregative E. coli (EAEC)"}, "[5]": {"settings": "5, 20, and 80 mg/kg daily for 14 days"}, "QseC": {"system": "QseC", "settings": "cited from earlier work"}, "in vivo": {"assay": "in vivo", "settings": "female, CD-1, mouse"}, "hERG channel": {"target": "hERG channel (Homo sapiens, UniProt Q12809)", "sequence (Q12809 whole entry)": "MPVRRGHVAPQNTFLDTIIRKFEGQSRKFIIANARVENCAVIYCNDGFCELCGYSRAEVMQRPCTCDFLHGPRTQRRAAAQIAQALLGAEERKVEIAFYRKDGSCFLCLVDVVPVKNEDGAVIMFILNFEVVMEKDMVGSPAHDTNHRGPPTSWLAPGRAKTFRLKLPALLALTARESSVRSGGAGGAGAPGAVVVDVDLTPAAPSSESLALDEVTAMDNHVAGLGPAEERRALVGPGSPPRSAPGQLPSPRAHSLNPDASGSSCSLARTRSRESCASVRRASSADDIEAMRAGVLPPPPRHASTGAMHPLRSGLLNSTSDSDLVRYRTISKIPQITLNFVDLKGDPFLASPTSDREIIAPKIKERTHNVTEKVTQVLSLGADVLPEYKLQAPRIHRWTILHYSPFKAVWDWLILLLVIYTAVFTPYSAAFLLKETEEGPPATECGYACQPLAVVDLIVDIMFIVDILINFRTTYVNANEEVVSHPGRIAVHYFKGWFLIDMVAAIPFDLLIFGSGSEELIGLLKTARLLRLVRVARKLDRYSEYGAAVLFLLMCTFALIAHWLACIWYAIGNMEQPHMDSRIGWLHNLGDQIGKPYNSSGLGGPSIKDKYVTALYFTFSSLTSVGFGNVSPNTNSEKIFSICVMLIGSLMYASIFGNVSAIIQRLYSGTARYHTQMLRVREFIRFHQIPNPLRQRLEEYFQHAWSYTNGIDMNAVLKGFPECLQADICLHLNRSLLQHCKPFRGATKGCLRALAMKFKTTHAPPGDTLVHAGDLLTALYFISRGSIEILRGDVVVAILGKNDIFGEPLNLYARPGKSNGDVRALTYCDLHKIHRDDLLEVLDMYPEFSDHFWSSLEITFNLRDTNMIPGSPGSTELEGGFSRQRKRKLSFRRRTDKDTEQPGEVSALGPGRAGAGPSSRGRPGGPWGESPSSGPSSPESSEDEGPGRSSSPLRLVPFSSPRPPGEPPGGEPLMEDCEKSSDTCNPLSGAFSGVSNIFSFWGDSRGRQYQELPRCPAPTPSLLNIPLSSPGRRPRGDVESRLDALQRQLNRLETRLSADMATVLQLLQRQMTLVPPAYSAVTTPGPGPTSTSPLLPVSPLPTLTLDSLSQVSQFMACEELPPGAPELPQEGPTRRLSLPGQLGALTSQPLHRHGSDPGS", "assay": "in vitro"}, "[6]": {"settings": "mouse, in vivo; cited from earlier work"}}, "note": "Read-outs that look alike come from different tables or passages of the source."}
{"smiles": "O=C(Nc1ccccc1)Nc1ccc(NS(=O)(=O)c2ccccc2)cc1", "note": "[CF252, N-(4-(3-Phenylureido)phenyl)benzenesulfonamide]", "values": [{"measurement": "expression of ler and stx2a", "setting": "EHEC", "result": "reversed the antagonist behavior"}]}
{"smiles": "O=C(Nc1ccccc1)Nc1ccc(S(=O)(=O)NC2CCCCC2)cc1", "note": "[CF283, N-Cyclohexyl-4-(3-phenylureido)benzenesulfonamide]", "values": [{"measurement": "expression of ler and stx2a", "setting": "EHEC", "result": "significantly reduced"}]}
{"smiles": "COc1ccccc1NC(=O)Nc1ccc(S(=O)(=O)Nc2ccccc2)cc1", "note": "[CF287, 4-(3-(2-Methoxyphenyl)ureido)-N-phenylbenzenesulfonamide]", "values": [{"measurement": "expression of ler and stx2a", "setting": "EHEC", "result": "lost the antagonist activity"}]}
{"smiles": "O=C(Nc1ccc(S(=O)(=O)Nc2ccccc2)cc1)Nc1nncs1", "note": "[CF290, 4-(3-(1,3,4-Thiadiazol-2-yl)ureido)-N-phenylbenzenesulfonamide]", "values": [{"measurement": "increase of ler", "setting": "EHEC", "result": 2, "unit": "fold"}]}
{"smiles": "O=S(=O)(Nc1ccccc1)c1ccc(NC(=S)Nc2ccccc2)cc1", "note": "[LED209, N-phenyl-4-(3-phenylthioureido)benzenesulfonamide]", "values": [{"measurement": "expression of key virulence genes (ler, tir, stx2a)", "setting": "EHEC", "result": "phenocopied a qseC mutation"}, {"measurement": "expression of ler and stx2a", "setting": "EHEC", "result": "works as well as all of our previous LED209 batches"}, {"measurement": "expression of the virulence genes (LEE: ler, tir)", "setting": "EHEC", "result": "nonresponsive"}, {"measurement": "expression of the virulence genes (ler)", "setting": "EHEC", "result": "did not respond"}, {"measurement": "decrease of survival of S. Typhimurium within macrophages", "setting": "S. Typhimurium", "result": 4, "unit": "logs"}, {"measurement": "mice remained alive", "setting": "[1]", "result": 43, "unit": "%"}, {"measurement": "mice remained alive", "setting": "[1]; 20 mg/kg", "result": 60, "unit": "%"}, {"measurement": "mice survived", "setting": "[1]; po, 20 mg/kg", "result": 50, "unit": "%"}, {"measurement": "reduction of biofilm formation", "setting": "EAEC O104:H4 [2]", "result": 37, "unit": "%"}, {"measurement": "reduction in biofilm formation", "setting": "UPEC; UPEC clinical isolate 6", "result": 43, "unit": "%"}, {"measurement": "reduction in biofilm formation", "setting": "UPEC; UPEC clinical isolate 8", "result": 48, "unit": "%"}, {"measurement": "reduction in biofilm formation", "setting": "UPEC; UPEC clinical isolate 25", "result": 43, "unit": "%"}, {"measurement": "reduction of biofilm formation", "setting": "UPEC; UPEC strain CFT073, 5 nM, not significant", "result": 8, "unit": "%"}, {"measurement": "reduction of biofilm formation", "setting": "UPEC; UPEC strain UTI89, 5 nM", "result": 35, "unit": "%"}, {"measurement": "reduction of biofilm formation", "setting": "[3]; clinical isolate 18", "result": 26, "unit": "%"}, {"measurement": "reduction of biofilm formation", "setting": "[3]; clinical isolate 20", "result": 21, "unit": "%"}, {"measurement": "expression of stx2a", "setting": "EAEC O104:H4 [4]", "result": "significantly reduced"}, {"measurement": "penetration of the blood-brain barrier", "setting": "20 mg/kg", "result": "limited"}, {"measurement": "peak concentrations in plasma", "setting": "at each oral dose", "result": "high"}, {"measurement": "exposures versus dose", "setting": "oral doses above 80 mg/kg", "result": "increased less than proportionally"}, {"measurement": "oral bioavailability", "setting": "oral gavage, mice", "result": "good"}, {"measurement": "pharmacokinetics by the oral route", "setting": "oral gavage, mice", "result": "nonlinear"}, {"measurement": "liver toxicity", "setting": "[5]", "result": "no liver toxicity"}, {"measurement": "toxicity", "setting": "[5]", "result": "did not present any toxicity"}, {"measurement": "QseC binding to its signals and autophosphorylation", "setting": "QseC", "result": "preventing binding to its signals and consequently its autophosphorylation"}, {"measurement": "half-life", "setting": "in vivo", "result": "0.667 to 1.67", "unit": "h"}, {"measurement": "inhibition at 10 µM", "setting": "hERG channel", "result": 4, "unit": "%"}, {"measurement": "pharmacokinetics via the intravenous route", "setting": "[6]", "result": "linear"}]}
